Test results published in publication PMC7115756 (Journal of Medicinal Chemistry, 2020).
Entries after “also recorded” stand apart in the source; their conditions may differ.

Columns and labels:
TTR = TTR (Homo sapiens, UniProt P02766); assay: ITC, binary complex TTR + Aβ peptide; type: binding; conditions: thermograms of binary complexes; HEPES/glycine pH 7.4, 5% DMSO, 25 °C
TTR/Aβ(1–42) complex = TTR/Aβ(1–42) complex (Homo sapiens, UniProt P02766); assay: ITC, ternary complex: [TTR + stabilizer] titrated with Aβ; type: binding; conditions: compared with TTR/Aβ(1–42) without stabilizer
TTR/Aβ(12–28) complex = TTR/Aβ(12–28) complex (Homo sapiens, UniProt P02766); assay: as above; type: binding; conditions: compared with TTR + Aβ(12–28) without stabilizer
mice model of AD = conditions: in vivo administration; cited from earlier work

For Y EVHHQ KLVFF [Aβ(10–20) (6)], which “interaction with TTR by ITC (in words)” value (TTR) is on record?
Its value is “very low enthalpy change”.

Which results are given for O=C(O)c1ccc2nc(-c3cc(Cl)cc(Cl)c3)oc2c1 [Tafamidis, 2-(3,5-dichlorophenyl)-1,3-benzoxazole-6-carboxylic acid]?
chaperoning effect on the TTR/Aβ(1–42) interaction (in words) (TTR/Aβ(1–42) complex; listed as Tafamidis (2)): negligible effect; also recorded: chaperoning effect could not be observed; also recorded: not detected; effect of the stabilizer on the TTR/Aβ(12–28) complex (in words) (TTR/Aβ(12–28) complex; listed as Tafamidis (2)): do not enhance the TTR/Aβ interaction; also recorded: negligible

For O=C(O)c1cc(-c2ccc(F)cc2F)ccc1O [Diflunisal, 5-(2,4-difluorophenyl)-2-hydroxy-benzoic acid], which “chaperoning effect on the TTR/Aβ(1–42) interaction (in words)” value (TTR/Aβ(1–42) complex) is on record?
The value was “chaperoning effect could not be observed”.

What about the “effect of the stabilizer on the TTR/Aβ(12–28) complex (in words)” value (TTR/Aβ(12–28) complex; listed as diflunisal (1)) of the same compound?
Its value is “do not enhance the TTR/Aβ interaction; also recorded: negligible”.

With EDVG SNKGA IIGLM [Aβ(25–35) (8)] as the compound, how does the “interaction with TTR by ITC (in words)” value (TTR) read?
The value was “no significant interaction”.

What does the source list for O=C(O)c1cc(-c2ccc(F)cc2F)cc(I)c1O [IDIF, 2',4'-difluoro-4-hydroxy-5-iodo-1,1'-biphenyl-3-carboxylic acid]?
chaperoning effect on the TTR/Aβ(1–42) interaction (in words) (TTR/Aβ(1–42) complex): cooperative effect; effect in AD mice (brain Aβ, cognition) (mice model of AD): decrease in brain Aβ levels and deposition; effect of the stabilizer on the TTR/Aβ(12–28) complex (in words) (TTR/Aβ(12–28) complex): stabilizing

Which “interaction with TTR by ITC (in words)” value (TTR) does the source give for DAEFR HDSGY E [Aβ(1–11) (5)] here?
The value was “no significant interaction”.
